pIC50: −log10 of the molar value. Like-named read-outs stand apart in the source and are kept apart here.
How the values were obtained:
ITK = ITK (Homo sapiens (Human), UniProt Q08881); test: ITK inhibitor binding potency (LanthaScreen competitive binding assay); conditions: TR-FRET tracer-236 displacement, 10 nM ITK; pre-incubation condition not given; read-out: ITK Inhibition IC50
Description: The ability of candidate compounds to interact with ITK is quantitated by a competitive binding assay using the LanthaScreen technology developed by Life Technologies. This assay is based on the binding of a proprietary, Alexa Fluor® 647-labeled, ATP-competitive kinase inhibitor (kinase tracer-236) to the ITK expression construct in the presence of a Europium-conjugated antibody, resulting in a FRET (fluorescence resonance energy transfer) signal. Displacement of the kinase tracer by compound results in a lower emission ratio upon excitation of the Europium chelate. Candidate compounds are designed as potential irreversible inhibitors of ITK, capable of ligating to an active site cysteine residue resulting in time dependent covalent binding. The time dependent nature of irreversible inhibition is investigated by performing the binding assay with and without a pre-incubation of compound and ITK. […] The inhibitory potency of candidate compounds is measured in 20 mM HEPES pH 7.5, 10 mM MgCl2, 0.01% BSA, 0.0005% Tween-20, and 2% DMSO in the presence of 10 nM ITK, 2 nM Eu-anti-GST antibody, and 50 nM kinase tracer-236 using a 384-well plate format. Background signal is defined in the absence of ITK and uninhibited signal is defined in the presence of vehicle (2% DMSO) alone. Compounds were evaluated in an 11 point dose-response ranging from 20 uM to 0.34 nM. The binding assays are performed under two preincubation conditions to evaluate time dependence of inhibition. For the pre-incubation assay, ITK and Eu-anti-GST antibody are pre-incubated with compound or vehicle for two hours prior to the addition of kinase tracer. The non-preincubated assay is run under conditions where ITK and Eu-anti-GST antibody are added to a mixture of compound and kinase tracer. IC50 values of compounds are determined using a 4 parameter logistical fit of emission ratio as a function of the concentration of compound.

[1] = tested on: phospho-PLCγ1 in Jurkat cells; test: ITK target modulation PLC-γ assay (phospho-PLCγ1, αCD3-stimulated Jurkat cells); type: cell-based, human; conditions: 1 hour compound incubation, αCD3 Dynabeads stimulation 8 minutes, MSD phospho-PLCγ1, read-out: PLC-γ Inhibition IC50

Chain of ITK (Q08881 whole entry): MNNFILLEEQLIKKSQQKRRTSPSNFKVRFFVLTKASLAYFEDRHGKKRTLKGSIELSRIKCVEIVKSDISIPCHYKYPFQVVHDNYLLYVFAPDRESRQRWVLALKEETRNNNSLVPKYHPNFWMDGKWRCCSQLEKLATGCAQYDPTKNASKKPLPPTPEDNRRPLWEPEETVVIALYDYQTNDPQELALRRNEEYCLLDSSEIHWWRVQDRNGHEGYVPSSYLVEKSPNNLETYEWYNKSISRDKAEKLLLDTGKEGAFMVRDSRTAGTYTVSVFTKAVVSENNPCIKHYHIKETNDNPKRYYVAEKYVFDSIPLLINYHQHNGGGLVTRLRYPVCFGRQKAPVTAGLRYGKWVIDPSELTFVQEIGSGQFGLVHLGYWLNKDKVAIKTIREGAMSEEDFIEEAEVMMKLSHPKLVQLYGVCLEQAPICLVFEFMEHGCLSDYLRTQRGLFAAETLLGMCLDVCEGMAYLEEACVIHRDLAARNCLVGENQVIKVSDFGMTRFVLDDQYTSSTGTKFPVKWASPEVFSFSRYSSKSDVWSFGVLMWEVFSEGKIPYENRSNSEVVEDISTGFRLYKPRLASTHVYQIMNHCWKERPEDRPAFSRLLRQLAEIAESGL

Compound	pIC50 (ITK)	pIC50 ([1]; Homo sapiens)	pIC50 [1]
C=C(C)C(=O)Nc1cccc(-c2cnc3[nH]cc(-c4ccnc(OC)c4)c3c2)c1 [Example 81, N-(3-(3-(2-methoxypyridin-4-yl)-1H-pyrrolo[2,3-b]pyridin-5-yl)phenyl)meth-acrylamide]	< 6.00	< 5.30	–
CN(C)C/C=C/C(=O)Nc1cccc(-c2cnc3[nH]cc(-c4cccnc4)c3c2)c1 [Example 84, (E)-4-(dimethylamino)-N-(3-(3-(pyridin-3-yl)-1H-pyrrolo[2,3-b]pyridin-5-yl)phenyl)but-2-enamide]	≥ 6.00	5.30 to 6.00	–
C=C(C)C(=O)Nc1cccc(-c2cnc3[nH]cc(-c4cccnc4)c3c2)c1 [Example 85, N-(3-(3-(pyridin-3-yl)-1H-pyrrolo[2,3-b]pyridin-5-yl)phenyl)meth-acrylamide]	≥ 6.00	< 5.30	–
C=CC(=O)Nc1cccc(-c2cnc3[nH]cc(-c4cn(CC5CC5)c(=O)c5ccccc45)c3c2)c1 [Example 86, N-(3-(3-(2-(cyclopropyl-methyl)-1-oxo-1,2-dihydroisoquino-lin-4-yl)-1H-pyrrolo[2,3-b]pyridin-5-yl)phenyl)acryl-amide]	< 6.00	< 5.30	–
COc1cc(-c2c[nH]c3ncc(-c4cccc(NC(=O)/C(C#N)=C/C(C)C)c4)cc23)ccn1 [Example 87, (E)-2-cyano-N-(3-(3-(2-methoxypyridin-4-yl)-1H-pyrrolo[2,3-b]pyridin-5-yl)phenyl)-4-methylpent-2-enamide]	≥ 6.00	< 5.30	–
CN(C)C/C=C/C(=O)Nc1cccc(-c2cnc3[nH]cc(-c4ccnc5[nH]ccc45)c3c2)c1 [Example 89, (E)-N-(3-(1H,1′H-[3,4′-bipyrrolo[2,3-b]pyridin]-5-yl)phenyl)-4-(dimethylamino) but-2-enamide]	≥ 6.00	> 6.00	–
CN(C)C/C=C/C(=O)Nc1cccc(-c2cnc3[nH]cc(-c4ccc(=O)n(CC5CC5)c4)c3c2)c1 [Example 90, (E)-N-(3-(3-(1-(cyclopropyl-methyl)-6-oxo-1,6-dihydropyridin-3-yl)-1H-pyrrolo[2,3-b]pyridin-5-yl)phenyl)-4-(dimethylamino) but-2-enamide]	≥ 6.00	< 5.30	–
N-(6-methoxy- 4-(3-(2- methoxypyridin- 4-yl)-1H- pyrrolo[2,3- b]pyridin-5- yl)pyridin-2- yl)methacryl- amide [Example 68]	< 6.00	–	< 5.30

Source: US9695200B2, “Heterocyclic ITK inhibitors for treating inflammation and cancer” (Confluence Life Sciences, Inc., priority 2015, dated 2017)
